melting point [°C]	Compound
132	COc1ccc(C)nc1Cn1c(NCCCN2CCOCC2)nc2ccc(CNc3cc(C)ccc3CCCO)cc21
231 to 233	Cc1c(N2CCN(C(=O)OC(C)(C)C)CC2)nn2c(-c3ccncc3)c(-c3ccc(F)cc3)nc2c1C
208 to 210	O=c1nc(-c2cccc(S(=O)Cc3ccccc3)n2)sc2ccccc12 (configuration not stated)
168 to 170	CN1CCCCC1COC(=O)c1c[nH]c2ccccc12 (configuration not stated)
78 to 81	O=C(c1cccs1)c1cnn2c(-c3cccc(NCC4CC=CCC4)c3)ccnc12 (configuration not stated)
231 to 232	Cc1cc2oc(C(=O)O)cc(=O)c2c2c1-c1ccccc1C(C)(C)O2
96 to 97	CC1(C)Cc2cc([N+](=O)[O-])cc(O)c2O1
47 to 50	CC(C)(C)OC(=O)Nc1cc(OC(C)(C)C)c(-c2ccccc2F)cc1NC(=O)CC(=O)c1cccc(-n2ccnn2)c1
171 to 173	Nc1nc(NC2CCCCCCC2)c2ncn(C3C=CC(CO)C3)c2n1 (configuration not stated)
219	Nc1c(Cl)cc(-c2nc(C3CCNCC3)no2)c2c1CCO2
98 to 100	CC1(C)OC(=O)C(COS(C)(=O)=O)(c2ccc(Cl)cc2Cl)O1 (configuration not stated)
155 to 157	Cn1c(CCN2CCN(Cc3ccccc3)CC2)nc2cc(Br)c3ccccc3c21
> 220	Cc1cn(S(=O)(=O)c2ccc(=O)[nH]n2)c2ccccc12
37 to 39	Nc1cccc2c1CC=CC2
176 to 178	COCCOc1ccc(/C=C/C(=O)O)c(OCc2ccc(Cl)cc2Cl)c1
99 to 101	CCCCCCCCOc1ccc(-c2ncc(Br)cn2)cn1
204 to 205	COC(=O)/C(=N\O)c1csc(NC(c2ccccc2)(c2ccccc2)c2ccccc2)n1
78	Cc1c(C(F)(F)C(F)(F)F)oc2c(C=O)cccc12
90 to 91	CN(C)C(=O)N(C)c1cc(C(C)(C)C)on1
162 to 163	CC(=O)NC(=O)c1cncc([N+](=O)[O-])c1
102 to 103	Cc1ccc2c(c1)C(C)(O)c1ccccc1C=C2 (configuration not stated)
75 to 76	O=C(Nc1ccc2c(c1)CCN2)C(=O)N1CCC(Cc2ccccc2)CC1
51 to 53	CCCCCCCCCCCCCCCCCCCc1cc(N)cc(CCCCCCCCCCCCCCCCCCC)c1
215 to 218	O=C1Nc2cc(Cl)c(Cl)cc2C1(Br)c1ccccc1Cl (configuration not stated)

melting point [°C]	Compound
67 to 68	Cc1nc2cc(OCCO)ccc2s1
52 to 53	CCCCCc1oc(-c2ccc(Cl)cc2)nc1CC(=O)OCC
90.3 to 95.6	C=C=COc1ccc2cc3ccccc3cc2c1
138 to 141	COCC1CCCN1S(=O)(=O)c1ccc2c(c1)C1(OCCCO1)C(=O)N2CCC#N (configuration not stated)
64 to 65	CNc1ccc(F)c(C#N)c1
136 to 141	N#CCSc1nc(Cl)cc(-c2ccccc2)n1
164 to 166	C=C(C)COc1ccc(C(=O)C=Cc2cccnc2)c(O)c1
118 to 120	Nc1ncccc1-c1nc2ccc(-c3ccc(CO)cc3)nc2n1-c1ccc(CNC(=O)c2ccccc2)cc1
132 to 133	CCCn1c(=O)c(-c2ccccc2)c2n(c1=O)CCCS2
253 to 256	Nc1cc2c3c(cccc3c1N1CCCC1)C(=O)N(O)C2=O
216 to 218	O=C(NCc1cn(-c2ccc(N3CCSCC3)c(F)c2)nn1)c1cnccn1
146 to 148	CC(C)c1ccc(COc2ccc(CC(=O)O)cc2Cl)cc1
145 to 147	CC(C)(C)OC(=O)NCCNC(=O)c1ncccc1OCc1ccccc1
128 to 130	CN1C(=O)Cc2cc(F)ccc21
200 to 202	c1ccc(-c2nc3c([nH]2)CCCC3CN2CCN(c3ncccn3)CC2)cc1 (configuration not stated)
176 to 178	CCn1c(=O)nc(-c2ccccc2)c2cc(Cl)ccc21
100 to 102	O=C(CCCCC1SCC2NC(=O)NC21)NCCOCCOCCN1C(=O)C(Br)=C(Br)C1=O (configuration not stated)
74 to 75	CCN(CC)CCOc1ccc(C(O)(CC)c2cccc(C(F)(F)F)c2)cc1 (configuration not stated)
115 to 117	O=C(Nc1ccc(F)cc1)c1cn2nc(N3CCN(C(=O)c4ccccc4C(F)(F)F)CC3)ccc2n1
128 to 130	C=COCCONC(=O)c1cc(Br)c(F)c(F)c1Nc1ccc(I)cc1F
50	Oc1nsc(Cc2ccccc2)n1
109 to 112	FC(F)(F)COc1ccc(CCNc2ncnc3scnc23)cn1
186 to 187	COC(=O)C1(C)COC(c2nc(-c3ccc(F)cc3)c(-c3ccnc(S(C)(=O)=O)n3)[nH]2)OC1 (configuration not stated)
118	Cc1ccc(C2=C(c3ccc(S(C)(=O)=O)cc3)CCC2)cc1

melting point [°C]	Compound
175 to 178	NNc1cc2c(nn1)CCN(C(=O)CC(c1ccccc1)c1ccccc1)C2
92 to 97	CC(C)CCNCC(O)C(CC(C)C)NC(=O)C(Cc1c[nH]cn1)NC(=O)C(CC(=O)NCCc1ccccc1)Cc1cccc2ccccc12 (mixture of isomers)
36.9 to 37.9	CCCCCCCCCCCCCCOc1cc(C)ccc1C
58 to 60	Fc1ccc(OCCCCCCN2CCN(c3nccs3)CC2)cc1
135 to 138	Cc1c(C)c2c(c(C)c1N)CC(C)(CN1CCN(C(=O)CCC(c3ccccc3)c3ccccc3)CC1)O2 (configuration not stated)
113 to 114	N#CCCNC(=O)c1cc(F)cc(-c2cccc3cc(Cc4cc(F)cc(Cl)c4)sc23)c1
84 to 85	O=C(OC1CCCCC1=O)c1ccc(Cl)cc1 (configuration not stated)
147 to 154	CCC(C)C(NS(=O)c1ccc(C)cc1)C1(C(=O)NC)SCCS1 (configuration not stated)
80 to 85	CCCCc1nc(I)c(C=O)[nH]1
89 to 92	CC(=O)Nc1cc(C)c(C)nc1C
119 to 120	Nc1ccc(C=C2c3ccccc3C=Cc3ccccc32)cc1
242 to 245	CN1C(=O)C(Cc2c[nH]c3c(Cl)cc(S(C)(=O)=O)cc23)NC1=S (configuration not stated)
86 to 87	Cc1oc(C=Cc2cccc(Cl)c2)nc1CCl
187 to 189	C=CCc1cc2c(ccc(=O)n2CC=C(C)C)c(CC=C)c1O
148 to 154	Clc1cc(-c2ccc(CBr)c(Cl)c2)ccc1CBr
120 to 122	CCNC(=S)N1CCN(c2cncc(OC)n2)CC1
122 to 124	O=S(=O)(Cc1ccccc1)c1ncc(Cl)cn1
127 to 128	CC(=O)Oc1ccc(C=Cc2ccc3ccccc3n2)cc1
98 to 99	CCc1cccc(CC(=O)O)c1OCCCc1cc(OC(C)C)nn1Cc1ccc(Cl)cc1Cl
164 to 165	CC(C)Cc1nc2ccc(Br)cc2c(-c2ccccc2)c1CN1C(=O)c2ccccc2C1=O
188 to 191	COc1cc(Nc2ncc(C#N)c(-c3ccc(CO)cc3)n2)cc(OC)c1OC
223 to 224	CC1(C)Oc2ccc(-n3c(=O)[nH]c4cccnc43)cc2O1
227 to 228	Cc1c(C(=O)c2ccc(F)cc2)n(N2C(=O)c3ccccc3C2=O)c2ccccc12
192 to 193	c1ccc(Sc2c(CCc3nc4ccccc4o3)[nH]c3ccccc23)cc1

melting point [°C]	Compound
162 to 163	NCCCCCCCCCCCCCCCCCC(=O)O
100 to 102	CCCc1c(OCCCCCOc2ccc3cc(OCC(=O)OCC)ccc3c2CCC(=O)OCC)ccc2c1OCCC2=O
164 to 166	CCCC(=O)Nc1ccc(Sc2ccccc2)cc1NC(=NC(=O)OC)NC(=O)OC
201 to 204	CCN(CC)c1nc(N)nc(-c2ccc(Cl)c(Cl)c2)n1
216 to 218	CNc1nc(CO)c(-c2ccncc2)s1
164 to 165	CCCCc1nn(-c2cccc([N+](=O)[O-])c2)c(=O)n1Cc1ccc(-c2ccccc2S(=O)(=O)NC(C)(C)C)cc1
158 to 160	CCCCOc1cc(C(=O)O)n(Cc2ccc(C(F)(F)F)cc2Cl)n1
72 to 73	CN(CCOc1ccc(CON=C(CCC(=O)O)c2ccccc2)cc1)c1ncccn1
120 to 125	COc1ccc(C(Cl)=NS(=O)(=O)C=Cc2ccc(Cl)c(Cl)c2)cc1OC
93 to 94	CCCCCCCN(CCN1CCN(CCCSc2nc3ccccc3o2)CC1)C(=O)Nc1c(C(C)C)cccc1C(C)C
273 to 275	CCC(CC)NC(=O)c1cc(-c2cnc3[nH]cc(C(=O)C4(C)CCCCC4)c3n2)cs1
56 to 58	Cc1cc(N)nc(CCCCNC(=O)Cc2ccc3c(c2)OCO3)c1
144 to 146	CC(=O)c1cc(O)c(C)cc1O
117 to 118	CNC(=O)n1nc(Oc2ncc(C(F)(F)F)cc2Cl)c(C)c1C
149 to 154	O=C(O)[C@H](CCc1ccccc1)NS(=O)(=O)c1ccc2c(c1)Sc1ccccc1O2
147 to 148	O=S(=O)(CCCl)CCC(F)(F)C(F)(F)C(F)(F)C(F)(F)C(F)(F)C(F)(F)C(F)(F)C(F)(F)C(F)(F)C(F)(F)F
250 to 252	CNC(=O)c1cn2c(C)c(C)nc2c(O)c1CC[C@@H](O)c1ccccc1
193 to 194	CC(=O)NC[C@H]1CN(c2ccc(-n3ccnn3)c(F)c2)C(=O)O1
74 to 76	CC(=NNCCc1ccccc1)C(=O)O
214 to 215	COc1ccc(C(=O)Nc2cnc3c(c2)CN(Cc2ccccc2)CC3)cc1Br
95	OCC1OC(OCc2ccccc2)C(O)C1O (configuration not stated)
67.5 to 68.5	Cc1ccc2c(Br)c(Br)sc2c1

Compound	melting point [°C]
O=S(=O)(c1ccc(Cl)cc1)C(CCl)Sc1ccc(Br)cc1 (configuration not stated)	76 to 78
CC(=O)OC1CCC2C3CCC4=CC(=O)CCC4(CO)C3CCC12C (configuration not stated)	166 to 168
Ic1cnc(N2CCNCC2)nc1	39 to 40
O=C1c2ccccc2-n2cnc(-c3nc(C4CC4)no3)c2[C@@H]2CCCN12	211 to 212
Clc1conc1OC1CN2CCC1CC2 (configuration not stated)	68 to 69
CC1(C)CCC(C)(C)c2cc(-c3cc(-c4ccccc4O)ccc3C(=O)O)ccc21	264 to 267
C=CCc1cc(C#CC2(O)CN3CCC2CC3)ccc1OCC(=O)OCC (configuration not stated)	95.9
COc1cccc([C@@]23CCN(C)C[C@@H]2Cc2cc4ccccc4nc2C3)c1	154 to 156
